The text below walks through data of patent US10973819B2, “Small molecules inhibitors of RAD51” (The University of Chicago, priority 2016, dated 2021).

The target in data set [1] is T1, RAD51 (Homo sapiens, UniProt Q06609).
T1 sequence (Q06609 1-339): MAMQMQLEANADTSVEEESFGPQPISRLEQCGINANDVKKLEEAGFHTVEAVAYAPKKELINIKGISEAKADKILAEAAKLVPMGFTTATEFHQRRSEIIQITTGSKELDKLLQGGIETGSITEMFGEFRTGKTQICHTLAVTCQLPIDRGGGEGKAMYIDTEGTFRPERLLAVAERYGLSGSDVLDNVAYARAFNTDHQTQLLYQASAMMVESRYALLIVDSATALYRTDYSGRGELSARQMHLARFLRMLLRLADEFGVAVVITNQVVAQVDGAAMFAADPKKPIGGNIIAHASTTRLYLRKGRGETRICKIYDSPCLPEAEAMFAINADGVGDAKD
Put plainly: Gel-based D-loop assay. The class given is biochemical. As to conditions: for IC50: read-out: D-Loops IC50. As for the experimental part: Human RAD51 in reaction buffer was combined with compound in […] DMSO, incubated at 37° C. for 10 min, and then 1 μl of 5′-^32P-labeled 90-mer ssDNA (5′-[…]) with homology to the plasmid pRS306 ^34 was added and the reaction was incubated at 37° C. for an additional 5 minutes. 1 μl of supercoiled pRS306 was then added to the reaction and incubated at 37° C. for 20 minutes; at this point the reaction consisted of 25 mM HEPES-NaOH (pH 7.0), 1 mM ATP, 1 mM MgCl2, 1 mM DTT, 1.5 μM BSA, 4.5% DMSO, 0.5 μM RAD51, 11 mM NaCl, 1% glycerol, 20 nM ssDNA, and 5 nM pRS306. The reactions were de-proteinized with 0.8% SDS and 0.8 mg/ml proteinase K, mixed with gel loading buffer, and run on a 0.9% agarose/1×TAE gel, which was dried and exposed to a phosphor screen overnight and imaged on a Storm 860 PhosphorImager. Compound IC50 values were obtained by least-squares regression fitting of appropriate linear, log, or sigmoid dose-response models to the data, with the standard error indicated.
To improve upon the D-loop inhibitory activity, medicinal chemical studies were undertaken to optimize 8. First, different functional groups were appended to rings A and B as substituents, including alkyl groups of different sizes, electron withdrawing/donating groups, and hydrogen bond donor/acceptor groups. Next, replacement of the phenyl ring B with different heterocycles or other saturated/unsaturated rings was investigated in order to probe its role. For each of the prepared compounds, the gel-based D-loop assay and the microplate-based DNA binding assay were used to characterize the biochemical activities.

The subject of data set [2] is 293-DR-GFP cells. Nature of the data set: DR-GFP assay, quantitation of HR efficiency in cells. Conditions: for inhibitory activity in the cell-based HR (DR-GFP) assay relative to 1 and 8, in words: 24-hour incubation, FIG. 5a. Type of data set: cell-based, human. As for the experimental part: 293-DR-GFP cells were electroporated in Opti-MEM with 37.5 μg/ml pCBASce in 0.4 cm cuvettes at 325 V, 975 μF and seeded into 6-well plates with 2.5 ml complete DMEM+0.5% DMSO with compound and allowed to outgrow for 24 hours. Following outgrowth, cells were harvested and suspended in PBS with 1 μg/ml 7-aminoactinomycin D (7-AAD) and analyzed on a BD FACSCalibur flow cytometer. Dead and apoptotic cells were gated out based on size, shape, and 7-AAD staining and the fraction of GFP-positive cells among the population of live cells was determined.
The DR-GFP assay was used to test the ability of representative compounds to inhibit HR in human cells.^27 Briefly, cells containing the chromosomal DR-GFP reporter were transfected with a plasmid that expresses I-SceI, a rare-cutting endonuclease that makes a DSB within the DR-GFP cassette. Compounds were added at the time of transfection and the cells were outgrown for 24 hours. For longer outgrowth periods such as 48 hours, cells regained some HR activity. To overcome this technical limitation, the relatively early time point of 24 hours was selected to describe the in vivo effects of these compounds.

Data set [3] has as its system PC-3, Caov-3, SKOV3.ip1, Kuramochi, U2OS cell lines. Put plainly: Clonogenic survival of tumor cell lines after veliparib, olaparib or ionizing radiation. Type of data set: cell-based. As to conditions: administered immediately after veliparib, present during clonogenic outgrowth, FIGS. 6a-f. Here is the method:
FIG. 6A PC-3 cell line treated with veliparib. FIG. 6B Caov-3 cell line treated with veliparib. FIG. 6C Caov-3 cell line treated with olaparib. FIG. 6D SKOV3.ip1 cell line treated with veliparib. FIG. 6E Kuramochi cell line treated with veliparib. FIG. 6F U2OS cell line treated with ionizing radiation (x-rays).
Because 9h inhibits HR-mediated repair of DSBs, the effect of 9h on the sensitization of cancer cells to PARP inhibition or radiation damage was investigated. […] 2.

For data set [4], the system named is RAD51 foci. Nature of the data set: RAD51 cytological focus formation after irradiation. As to conditions: 6 hours post-irradiation. The class given is cell-based, human. As for the experimental part:
Cells were grown on glass coverslips for two days prior to irradiation with X-rays at 1.5 Gy/min using a Philips RT250 Maxitron. Following 6 hours of outgrowth, the adherent cells were incubated in permeabilization buffer (20 mM HEPES-NaOH (pH 7.4), 50 mM NaCl, 3 mM MgCl2, 0.5% Triton X-100, 300 mM sucrose) for 10 minutes at room temperature and then fixed in ice-cold fixation buffer (3% paraformaldehyde, 3.4% sucrose in 1×PBS) for 10 minutes at room temperature. The coverslips were washed 3 times in PBS, incubated in blocking buffer (1% BSA in 1×PBS) for 30 minutes, incubated with rabbit anti-human RAD51 primary antibody (Pacific Immunology) at a 1:1000 dilution in blocking buffer for 18 hours at 4° C., washed 3 times in PBS, incubated with Alexa488-conjugated goat anti-rabbit IgG secondary antibody (Invitrogen) at a 1:1000 dilution in blocking buffer for 1 hour at room temperature, washed 3 times in PBS, air-dried, and mounted onto glass slides in Vectashield with DAPI H-1200 (Vector laboratories). Slides were viewed on a Zeiss Axio Imager.M1 epifluorescence microscope equipped with a CCD camera for acquiring images of at least 100 randomly-selected nuclei per test condition at a representative focal plane within the nuclear volume. Sub-nuclear RAD51 foci were quantified using ImageJ (NIH, Bethesda, Md.) using a custom macro set that automatically counts foci. […]

Data set [5] addresses T1, RAD51. Put plainly: Fluorescence polarization-based DNA binding assay (RAD51-ssDNA binding). The class given is biochemical. As to conditions: for Emax: read-out: ssDNA binding Max effect; for influence on RAD51-ssDNA binding, in words: summary of Tables 2 and 3; for IC50 / ssDNA binding IC50: Stim = stimulator. Here is the method: The fluorescence polarization-based DNA binding assay and purification of human RAD51 used for this assay was performed as previously described with a few modifications.^23 Reactions were carried out in black 384-well polystyrene plates. In each well, RAD51 protein was combined with reaction buffer and varying concentrations of compound in DMSO in an initial volume of 40 μl and incubated at 37° C. for 40 minutes. Then, 10 μl of reaction buffer containing fluorescently-labeled ssDNA substrate (5′-Alexa488-oligo-dT45) was added and the reaction incubated at 37° C. for another 40 minutes, after which the plate was read on a Tecan Infinite 200 Pro plate reader equipped with two sets of 485±25 nm/535±35 nm with parallel or perpendicularly-oriented polarization filters. In both steps of the reaction setup, buffer components were maintained at 20 mM HEPES-NaOH (pH 7.5), 2 mM ATP, 10 mM MgCl2, 0.1 mM TCEP-HCl (tris(2-carboxyethyl)phosphine), and 0.25 μM BSA. The final reaction contained 4% DMSO, 0.2 μM RAD51, 30 mM NaCl, 2% glycerol, and 2.22 nM ssDNA substrate. Compound IC50 values were obtained by least-squares regression fitting of appropriate linear, log, or sigmoid dose-response models to the data, with the standard error indicated. […]
A general note: Polarisation of emitted light reports the rotation of a fluorescent probe.

Data set [6] is described as follows: Stability on exposure to air at room temperature. Conditions: slowly oxidized over time to compound 8. The class given is physicochemical. From the text:
These experimental results signify that compound 7 and 1 are distinct compounds. Compound 7 was not stable when exposed to air at room temperature; instead, it slowly oxidized over time to compound 8 (Scheme 2). Additionally, some of the oxidized product 8 was always produced during the preparation of compound 7.

The target of data set [7] is T1, RAD51. As to conditions: while sparing ssDNA binding activity; cited from earlier work.
Data set [8] deals with RAD51 foci. Conditions: previously reported; cited from earlier work.
The mark [9] stands for this setting: Table 2, cells marked ↑: compound stimulates RAD51-ssDNA binding.
Setting [10] is: Table 3, cells marked ↓: compound inhibits RAD51-ssDNA binding.

Read-outs that look alike come from different tables or passages of the source. A value given as a limit tells only on which side of the number the result lay.

`CCNc1ccc(-c2nc3ccccc3n3cccc23)cc1` [Compound 9h, N-ethyl-4-(pyrrolo[1,2-a]quinoxalin-4-yl)aniline]: the “D-Loops Max inhibition effect” value in data set [1] (Table 2) was determined as 91 ± 2%. The half-maximal inhibitory concentration (IC50) in data set [2] (Homo sapiens, 24 hours post-transfection, FIG. 5b, read-out: IC50, inhibition of cellular HR) is 0.3 ± 0.125 µM. Moreover, the “inhibition of cellular HR” value in data set [2] (at concentrations that did not inhibit RAD51 foci assembly) is listed as “more than 90%”. Moreover, the “sensitization of cancer cell lines to veliparib, olaparib or irradiation (clonogenic survival)” value in data set [3] is “significantly sensitized”; in data set [3] (listed as RI(dl)-2) it was “significantly sensitizes”. Also, in data set [4], the “timely assembly of RAD51 into sub-nuclear foci in response to DNA damage” value is given as “did not inhibit”. In data set [5] (setting [9]), the Emax was 2 ± 24%. The “influence on RAD51-ssDNA binding, in words” value (“influence” for short) in data set [5] is “almost no impact”.

On to `Nc1ccc(-c2nc3cc(O)ccc3n3cccc23)cc1` [Compound 12f, 4-(4-Aminophenyl)pyrrolo[1,2-a]quinoxalin-7-ol], for which the IC50 in data set [1] (Table 3) is 8.4 ± 3.4 µM; in data set [5] (Table 3), 96.9 ± 44.9 µM. The “inhibitory activity in the cell-based HR (DR-GFP) assay relative to 1 and 8, in words” value in data set [2] is recorded as “comparable or slightly less inhibitory activity”. Further, in data set [5] (setting [10]), the Emax came out at 82 ± 23%. Also, the “influence” value in data set [5] was “modest effects”.

On to `COc1ccc2c(c1)NC(c1ccc(N(C)C)cc1)c1cccn1-2` (stereo not shown) [Compound 7, 4-(7-Methoxy-4,5-dihydropyrrolo[1,2-a][13]quinoxalin-4-yl)-N,N-dimethylaniline], for which the “D-Loops Max inhibition effect” value in data set [1] (Table 1) is on record as 17%. For the same compound, the “inhibitory activity in the cell-based HR (DR-GFP) assay relative to 1 and 8, in words” value in data set [2] was “comparable”. Also, the “ssDNA binding IC50” value in data set [5] (Table 1) is reported as “Stim”. In data set [5] (Table 1, cells marked ↑: compound stimulates RAD51-ssDNA binding), the Emax turned out to be 47%. Moreover, the “stability when exposed to air at room temperature” value in data set [6] is “not stable”.

For `C[C@@]12CCC(=O)c3coc(c31)C(=O)c1cc3c(cc12)C(=O)C=CC3=O` [Halenaquinone, halenaquinone], in data set [7], the “inhibition of RAD51's HR activity in biochemical assays” value is “strongly inhibit”. Further, the “formation of RAD51 foci in human cells following irradiation” value in data set [8] is “inhibit”.

As to `Nc1ccc(-c2nc3cc(F)ccc3n3cccc23)cc1` [Compound 12i, 4-(7-Fluoropyrrolo[1,2-a]quinoxalin-4-yl)aniline], the values for the IC50 in data set [1] (Table 3) and in data set [5] (Table 3) were 25 ± 5.1 µM and 81.5 ± 16.6 µM, respectively. In addition, in data set [5] (setting [10]), the Emax amounted to 60 ± 18%.

With `CN(C)c1ccc(-c2nc3cc(O)ccc3n3cccc23)cc1` [Compound 12g, 4-(4-(Dimethylamino)phenyl)pyrrolo[1,2-a]quinoxalin-7-ol], in data set [1] (Table 3), the “D-Loops Max inhibition effect” value is reported as 91 ± 8% and the IC50 turned out to be 9.8 µM. In addition, the “inhibitory activity in the cell-based HR (DR-GFP) assay relative to 1 and 8, in words” value in data set [2] is listed as “comparable or slightly less inhibitory activity”. Further, the “ssDNA binding IC50” value in data set [5] (Table 3) is “Stim”. Also, in data set [5] (Table 3, cells marked ↑: compound stimulates RAD51-ssDNA binding), the Emax was 34 ± 32%. The “influence” value in data set [5] is on record as “only weakly influenced”.

On to `CN(C)c1ccc(-c2nc3ccccc3n3cccc23)cc1` [Compound 9a, N,N-dimethyl-4-(pyrrolo[1,2-a]quinoxalin-4-yl)aniline], for which, in data set [1] (Table 2), the IC50 turned out to be 27.6 ± 6 µM. Besides, the “ssDNA binding IC50” value in data set [5] (Table 2) is reported as “Stim”. Further, the Emax in data set [5] (setting [9]) is 88 ± 22%. In addition, in data set [5], the “influence” value is “modest influence”.

With `c1ccc2c(-c3nc4ccccc4n4cccc34)cccc2c1` [Compound 11d, 4-(Naphthalen-1-yl)pyrrolo[1,2-a]quinoxaline], the “D-loop inhibitory activity, in words” value in data set [1] (summary of Tables 2 and 3) is recorded as “weak”. Besides, the “ssDNA binding IC50” value in data set [5] (Table 2) was “Stim”. The Emax in data set [5] (setting [9]) is 56 ± 31%. In addition, the “influence” value in data set [5] is recorded as “modest influence”.

In the case of `Nc1ccc(-c2nc3ccccc3n3cccc23)cc1` [Compound 9g, 4-(Pyrrolo[1,2-a]quinoxalin-4-yl)aniline], the IC50 in data set [1] (Table 2) is 22.1 µM; in data set [5] (Table 2) it was over 100 µM. In data set [5] (Table 2, cells marked ↓: compound inhibits RAD51-ssDNA binding), the Emax is 18 ± 11%.

The IC50 is the concentration needed to halve the response being measured.
